Data: patent US20250352524A1, “PREVENTION OF METASTATIC OUTGROWTH USING TEAD INHIBITORS” (Georgetown University, priority 2024, published 2025)
“Also recorded” adds a separate entry of the source.

Test system: naïve C57/BL6 mice
Assay: Tumor naïve C57/BL6 mice treated for two weeks, lung immune microenvironment
Format: in vivo
Experimental: To determine iTEAD effect on lung immune microenvironment at steady state, naïve C57/BL6 mice were treated with iTEAD. […] In the absence of cancer cells in these naïve mice, no change in CD8+ T-cells was observed between treatment groups. […] On the cancer cell front, TEAD inhibition had no effect on proliferation yet reduced migration and 3D spheroid collective invasion of breast cancer cells in vitro.
To investigate how TEAD inhibition influences the immune microenvironment in the normal lung, C57BL/6 mice were treated with 30 mg/kg of VT107 or vehicle control via oral gavage for 2 weeks. Lung, spleen and blood tissues were harvested for immune cell analysis and RNA-sequencing (FIG. 9, Panel G). […] RNA-seq data was analyzed by Cibersortx (Chen et al., 2018) to deconvolute the abundance of immune cell types in the lung tissue using single-cell RNA-seq datasets.
Due to the shifts in immune signaling observed in the lung tissue upon TEAD inhibition (FIG. 9), immune cell populations were first analyzed by flow cytometry in the lungs and spleens of tumor naïve mice. Consistent with the Cibersort analysis of RNA-seq data, there was a decrease in the monocytes population and an increase in the tissue-resident alveolar macrophages (AM) (FIG. 10, Panel A). […] Next, it was sought to determine the specific effects of iTEAD treatment on lung resident versus bone-marrow derived macrophages, as the dynamics of these cell populations are crucial for the establishment of the metastatic niche (Ries et al., 2014; Qian et al., 2011). Macrophages were retrieved from the lungs by isolating F4/80+ cells, a specific marker for murine macrophages, by FACS (fluorescence-activated cell sorting) as well as bone marrow-derived macrophages from the femurs of naïve C57BL/6 mice that were then differentiated in vitro using macrophage colony stimulating factor (M-CSF). Macrophages were treated with 1 μM of VT107 for 24 hours before the conditioned media was collected and analyzed on a cytokine array. […] There was no change in the level of the other cytokines detected (FIG. 10, Panel B).
Single cell suspensions were washed 2× with PBS. Cells were then stained with Zombie NIR Fixable Viability Kit (Biolegend, 423106) or Zombie Aqua Fixable Viability Kit (Biolegend, 423102) for 20 minutes at room temperature, to identify dead cells. Next, cells were washed with FACS buffer (1×PBS+2% FBS) and incubated with conjugated antibodies binding to cell surface proteins, at 4 °C for 30 minutes. A combination of the following antibodies were used: anti-CD45-Spark Blue 550 (Biolegend, 103166), anti-CD3-PercP/Cy5.5 (Biolegend, 100217), anti-CD4-Pacific Blue (Biolegend, 116007), anti-CD8-BV785 (Biolegend, 100750), anti-CD25-BV650 (Biolegend, 102038), anti-CD45-AF700 (Biolegend, 103128), anti-CD45R (B220) (Biolegend, 563103), anti-SiglecF-APC (Miltenyi Biotec, 130-102-241), anti-CD11b-PE/Dazzle (Biolegend, 108745), anti-CD11c-FITC (Biolegend, 117306), anti-F480-PE/Cy7 (Biolegend, 123114), anti-Ly6G-BV785 (Biolegend, 127645), anti-Ly6C-BV570 (Biolegend, 128030), anti-CD206-AF700 (Biolegend, 141734), and anti-CD86-AF488 (Biolegend, 105018). Cells were fixed and permeabilized using the BD Cytofix/Cytoperm Fixation/Permeabilization Kit (BD Biosciences, #554714) prior to incubation with anti-Foxp3-AF647 (Biolegend, 126407), anti-Gata3-PE (Biolegend, 653803), anti-RORy t-BV421 (Biolegend, 562894), and anti-T-bet-BV711 (BD Biosciences, 4B10). After staining, cells were washed 2× and subjected to flow cytometry analysis using the BD FACSymphony Δ3 flow cytometer analyzer. Results were analyzed using FCS Express 7 Research (De Novo Software).
The total RNA from tissue or cell lines was extracted using RNeasy Mini Kit (Qiagen, #74104) according to the manufacturer's instructions. Total RNA integrity was assessed with the Agilent 2100 Bioanalyzer. The library preparation and next-generation sequencing (NGS) were performed at Novogene Corporation Inc. (Sacramento, CA, USA). […]

[1] = 30 mg/kg oral gavage 2 weeks, flow cytometry

Substance: VT107
- alveolar macrophages in the lungs [1]: increase
- infiltrating monocytes/macrophages in the lungs [1]: decrease
- alveolar macrophages in the lungs (30 mg/kg oral gavage 2 weeks, flow cytometry, listed as iTEAD): robust increase; also recorded: shift
- leukocytes fraction (Cibersortx of RNA-seq): slight increase
- monocyte fraction in lung tissue (Cibersortx of RNA-seq): reduced
- myeloid cells' fraction including tissue resident macrophages (Cibersortx of RNA-seq): expanded
- IL12 signaling pathway in lung (Ingenuity pathway analysis): increase
- inflammation (cytokine storm, S100 family, wound healing and fibrosis signaling pathways) in lung (Ingenuity pathway analysis): overall reduction
- lung gene expression, downregulated compared to upregulated genes (RNA-sequencing): significantly higher number of downregulated genes
- spleen gene expression (RNA-sequencing): minimal changes
- CD3+ cells in tumor naïve lungs (flow cytometry): increase
- CD4+ or CD8+ T-cell populations in tumor naïve lungs (flow cytometry): not specifically
- total macrophages, dendritic cells, eosinophils or neutrophils (flow cytometry, analyzed tissues): No significant change
- alveolar macrophages and infiltrating monocytes/macrophages in spleen or blood (flow cytometry, listed as iTEAD): no change
- CD8+ T-cells (naïve mice, between treatment groups): no change
